In ChEMBL document CHEMBL1150118, “Agonodepsides a and B: two new depsides from a filamentous fungus F7524” (J Nat Prod, 2002):
Active and inactive are the calls of the source. No cut-off for these calls is given here.

Assays:
[1] = target: T1, Enoyl-[acyl-carrier-protein] reductase [NADH] (Mycobacterium tuberculosis) (UniProt P9WGR1); assay: inhibition of Mycobacterium tuberculosis InhA at 100 uM after 20 mins by fluorometric assay
T1 sequence (whole entry): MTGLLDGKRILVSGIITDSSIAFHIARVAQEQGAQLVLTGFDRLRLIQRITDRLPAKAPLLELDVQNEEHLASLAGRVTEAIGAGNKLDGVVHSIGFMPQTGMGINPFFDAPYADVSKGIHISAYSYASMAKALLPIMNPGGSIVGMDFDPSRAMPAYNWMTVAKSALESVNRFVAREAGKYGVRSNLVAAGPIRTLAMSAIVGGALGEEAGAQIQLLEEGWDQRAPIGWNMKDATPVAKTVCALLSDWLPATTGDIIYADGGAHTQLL

[2] = target: T2, Enoyl-[acyl-carrier-protein] reductase [NADH] (Mycobacterium tuberculosis, UniProt P9WGR1); assay: inhibition of Mycobacterium tuberculosis InhA after 20 mins by fluorometric assay
T2 sequence (P9WGR1 whole entry): T1 sequence (whole entry)

| SMILES | Activity [1] | IC50 [2] [µM] |
| --- | --- | --- |
| C/C=C(\C)c1cc(O)c(C)c(O)c1C(=O)Oc1cc(/C(C)=C/C)c(C(=O)O)c(O)c1C | inactive |  |
| C/C=C(\C)c1cc(O)c(C)c(OC(=O)c2c(/C(C)=C/C)cc(O)c(C)c2O)c1 [AGONODEPSIDE A] |  | 75 |
